Test results published in publication PMC8398451, “Molecular Engineering of Curcumin, an Active Constituent of Curcuma longa L. (Turmeric) of the Family Zingiberaceae with Improved Antiproliferative Activity” (Plants, 2021).

Assays:
[1] = tested on: CNS Cancer cell line panel; experiment: NCI antiproliferative assay, panel summary; assay type: cell-based, Human; conditions: 10 µM
[2] = tested on: IGROV1; experiment: NCI antiproliferative SRB assay, Ovarian Cancer panel; assay type: cell-based, Human; conditions: one dose 10 µM
[3] = tested on: EKVX; experiment: NCI antiproliferative SRB assay, Non-Small Cell Lung Cancer panel; assay type: cell-based, Human; conditions: one dose 10 µM
[4] = tested on: RXF 393; experiment: NCI antiproliferative SRB assay, Renal Cancer panel; assay type: cell-based, Human; conditions: one dose 10 µM
[5] = tested on: Colon Cancer cell line panel; experiment: NCI antiproliferative assay, panel summary; assay type: cell-based, Human; conditions: 10 µM
[6] = tested on: HCC-2998; experiment: NCI antiproliferative SRB assay, Colon Cancer panel; assay type: cell-based, Human; conditions: one dose 10 µM
[7] = tested on: SF-268; experiment: NCI antiproliferative SRB assay, CNS Cancer panel; assay type: cell-based, Human; conditions: one dose 10 µM
[8] = tested on: MOLT-4; experiment: NCI antiproliferative SRB assay, Leukemia panel; assay type: cell-based, Human; conditions: one dose 10 µM
[9] = tested on: SK-MEL-5; experiment: NCI antiproliferative SRB assay, Melanoma panel; assay type: cell-based, Human; conditions: one dose 10 µM
[10] = tested on: NCI-H460; experiment: NCI antiproliferative SRB assay, Non-Small Cell Lung Cancer panel; assay type: cell-based, Human; conditions: one dose 10 µM
[11] = tested on: HCT-15; experiment: NCI antiproliferative SRB assay, Colon Cancer panel; assay type: cell-based, Human; conditions: one dose 10 µM
[12] = tested on: U251; experiment: NCI antiproliferative SRB assay, CNS Cancer panel; assay type: cell-based; conditions: U251; one dose 10 µM
[13] = tested on: SK-MEL-2; experiment: NCI antiproliferative SRB assay, Melanoma panel; assay type: cell-based, Human; conditions: one dose 10 µM
[14] = tested on: HCT-116; experiment: NCI antiproliferative SRB assay, Colon Cancer panel; assay type: cell-based, Human; conditions: one dose 10 µM
[15] = tested on: OVCAR-3; experiment: NCI antiproliferative SRB assay, Ovarian Cancer panel; assay type: cell-based, Human; conditions: one dose 10 µM
[16] = tested on: COLO 205; experiment: NCI antiproliferative SRB assay, Colon Cancer panel; assay type: cell-based, Human; conditions: one dose 10 µM
[17] = tested on: CCRF-CEM; experiment: NCI antiproliferative SRB assay, Leukemia panel; assay type: cell-based, Human; conditions: one dose 10 µM
[18] = tested on: LOX IMVI; experiment: NCI antiproliferative SRB assay, Melanoma panel; assay type: cell-based, Human; conditions: one dose 10 µM
[19] = tested on: SR; experiment: NCI antiproliferative SRB assay, Leukemia panel; assay type: cell-based, Human; conditions: one dose 10 µM
[20] = tested on: MALME-3M; experiment: NCI antiproliferative SRB assay, Melanoma panel; assay type: cell-based, Human; conditions: one dose 10 µM
[21] = tested on: Renal Cancer cell line panel; experiment: NCI antiproliferative assay, panel summary; assay type: cell-based, Human; conditions: Renal Cancer panel; 10 µM
[22] = tested on: RPMI-8226; experiment: NCI antiproliferative SRB assay, Leukemia panel; assay type: cell-based, Human; conditions: one dose 10 µM
[23] = tested on: PC-3; experiment: NCI antiproliferative SRB assay, Prostate Cancer panel; assay type: cell-based, Human; conditions: one dose 10 µM
[24] = tested on: M14; experiment: NCI antiproliferative SRB assay, Melanoma panel; assay type: cell-based, Human; conditions: one dose 10 µM
[25] = tested on: UO-31; experiment: NCI antiproliferative SRB assay, Renal Cancer panel; assay type: cell-based, Human; conditions: one dose 10 µM
[26] = tested on: BT-549; experiment: NCI antiproliferative SRB assay, Breast Cancer panel; assay type: cell-based, Human; conditions: one dose 10 µM
[27] = tested on: HS 578T; experiment: as above; assay type: cell-based, Human; conditions: one dose 10 µM
[28] = tested on: T-47D; experiment: as above; assay type: cell-based, Human; conditions: one dose 10 µM
[29] = tested on: NCI-H226; experiment: NCI antiproliferative SRB assay, Non-Small Cell Lung Cancer panel; assay type: cell-based, Human; conditions: one dose 10 µM
[30] = tested on: OVCAR-5; experiment: NCI antiproliferative SRB assay, Ovarian Cancer panel; assay type: cell-based, Human; conditions: one dose 10 µM

## COc1ccc(/C=C/c2cc(/C=C/c3ccc(OC)c(O)c3)n(-c3cccc(Cl)c3)c(=S)n2)cc1O [3a]
[1]
  Mean % GI: 14.74%
[2]
  %GI: 4.74%
  GP (growth percent): 95.26
[3]
  %GI: 14.19%
  GP (growth percent): 85.81
[4]
  %GI: 7.37%
  GP (growth percent): 92.63
[5]
  Mean % GI: 16.72%
[6]
  %GI: −3.70%
  GP (growth percent): 103.70
[7]
  %GI: 16.24%
  GP (growth percent): 83.76
[8]
  %GI: 53.78%
  GP (growth percent): 46.22
[9]
  %GI: 21.01%
  GP (growth percent): 78.99
[10]
  %GI: 10.49%
  GP (growth percent): 89.51
[11]
  %GI: 6.07%
  GP (growth percent): 93.93
[12]
  %GI: 40.59%
  GP (growth percent): 59.41
[13]
  %GI: 4.85%
  GP (growth percent): 95.15
[14]
  %GI: 38.12%
  GP (growth percent): 61.88
[15]
  %GI: 8.70%
  GP (growth percent): 91.30
[16]
  %GI: −7.08%
  GP (growth percent): 107.08
[17]
  %GI: 46.57%
  GP (growth percent): 53.43
[18]
  %GI: 21.36%
  GP (growth percent): 78.64
[19]
  %GI: 51.28%
  GP (growth percent): 48.72
[20]
  %GI: 10.54%
  GP (growth percent): 89.46
[21]
  Mean % GI: 7.23%
[22]
  %GI: 39.41%
  GP (growth percent): 60.59
[23]
  %GI: 10.79%
  GP (growth percent): 89.21
[24]
  %GI: 5.96%
  GP (growth percent): 94.04
[25]
  %GI: 28.74%
  GP (growth percent): 71.26
[26]
  %GI: 27.48%
  GP (growth percent): 72.52
[27]
  %GI: 15.67%
  GP (growth percent): 84.33
[28]
  %GI: 36.18%
  GP (growth percent): 63.82
[29]
  %GI: 1.46%
  GP (growth percent): 98.54
[30]
  %GI: −12.92%
  GP (growth percent): 112.92
